Measured values reported in patent US20240317708A1, “INHIBITORS OF TRANSGLUTAMINASES” (ZEDIRA GMBH, priority 2021, published 2024).

Tests used:
[1] = molecular target: T1, recombinant human transglutaminase 2 (Homo sapiens, UniProt P21980); assay: Transglutaminase assay (dansylcadaverine incorporation into dimethylcasein, DCC-assay); type: biochemical; details: recombinant human TG2 10 nM, dansylcadaverine/dimethylcasein, 37° C.
T1 construct: purchased Zedira T022
T1 sequence (P21980 1-687): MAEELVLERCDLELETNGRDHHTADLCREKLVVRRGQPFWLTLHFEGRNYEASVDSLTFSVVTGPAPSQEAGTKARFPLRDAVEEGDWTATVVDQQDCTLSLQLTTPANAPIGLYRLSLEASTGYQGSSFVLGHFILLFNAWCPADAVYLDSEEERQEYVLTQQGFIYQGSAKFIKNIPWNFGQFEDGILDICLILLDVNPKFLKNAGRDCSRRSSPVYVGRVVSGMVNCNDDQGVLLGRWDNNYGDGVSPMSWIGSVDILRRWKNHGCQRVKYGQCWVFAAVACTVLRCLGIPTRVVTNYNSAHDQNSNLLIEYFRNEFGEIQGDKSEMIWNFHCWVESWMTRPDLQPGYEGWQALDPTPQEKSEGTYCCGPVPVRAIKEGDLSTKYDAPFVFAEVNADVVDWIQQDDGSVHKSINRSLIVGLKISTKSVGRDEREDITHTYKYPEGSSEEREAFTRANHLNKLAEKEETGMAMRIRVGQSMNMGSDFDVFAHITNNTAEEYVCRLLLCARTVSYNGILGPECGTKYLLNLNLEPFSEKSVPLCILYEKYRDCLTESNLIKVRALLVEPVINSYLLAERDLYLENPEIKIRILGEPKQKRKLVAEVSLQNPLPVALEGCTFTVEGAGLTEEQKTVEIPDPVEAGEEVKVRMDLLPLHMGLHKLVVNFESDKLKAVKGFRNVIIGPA
Procedure, shortened: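 IC50 derived from fluorescence slope between 20 and 30 min (λex 330 nm, λem 500 nm, 37 °C), expressed relative to a 2% DMSO control. Reaction: 10 nM recombinant human TG2, 4 μM dimethylcasein, 16.7 μM dansylcadaverine, 10 mM CaCl2 and glutathione, pH 8.0.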

[2] = Log D shake flask method (octanol / PBS pH 7.4, HPLC); type: physicochemical; details: octanol/phosphate-buffered saline (PBS); octanol / PBS pH 7.4, shake flask
Experimental: In order to classify the inventive compounds according to their lipophilicity, Log D values (distribution coefficient) were determined by means of the well-established shake flask method, measuring the partition of a compound between an octanol and phosphate-buffered saline (PBS, pH 7.4) by HPLC.

[3] = Caco-2 permeability assay (CacoReady kit); type: in vitro ADME; details: human
Procedure, shortened: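 Compounds are tested on pre-formed Caco-2 barriers supplied as a ready-to-use kit, following the kit protocol, and the Papp value is derived to estimate intestinal absorption.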

Compound	IC50 [1]	logD [2]	Papp [3]
COC(=O)/C=C/CC[C@H](NC(=O)c1cnnn1C)C(=O)Nc1cccn(CC(=O)NC23CC4(C)CC(C)(CC(C)(C4)C2)C3)c1=O [III-93, (S,E)-methyl 7-(1-(2-(3,5,7-trimethyl-1-adamantylamino)-2-oxoethyl)-2-oxo-1,2-dihydropyridin-3-ylamino)-6-(1-methyl-1H-1,2,3-triazole-5-carboxamido)-7-oxohept-2-enoate]	< 25 nM	1 to 3	1 to 10 ×10⁻⁶ cm/s
COC(=O)/C=C/CC[C@H](NC(=O)c1cc(Cl)sc1Cl)C(=O)Nc1cccn(CC(=O)NC23CC4(C)CC(C)(CC(C)(C4)C2)C3)c1=O [III-94, (S,E)-methyl 6-(2,5-dichlorothiophene-3-carboxamido)-7-(1-(2-(3,5,7-trimethyl-1-adamantylamino)-2-oxoethyl)-2-oxo-1,2-dihydropyridin-3-ylamino)-7-oxohept-2-enoate]	< 25 nM	3 to 5	1 to 10 ×10⁻⁶ cm/s
COC(=O)/C=C/CC[C@H](NC(=O)c1sc(C(F)(F)F)nc1C)C(=O)Nc1cccn(CC(=O)NC23CC4(C)CC(C)(CC(C)(C4)C2)C3)c1=O [III-95, (S,E)-methyl 7-(1-(2-(3,5,7-trimethyl-1-adamantylamino)-2-oxoethyl)-2-oxo-1,2-dihydropyridin-3-ylamino)-6-(4-methyl-2-(trifluoromethyl)thiazole-5-carboxamido)-7-oxohept-2-enoate]	< 25 nM	3 to 5	1 to 10 ×10⁻⁶ cm/s
COC(=O)/C=C/CC[C@H](NC(=O)c1cnnn1C)C(=O)Nc1cccn(CC(=O)N[C@@H]2C[C@H]3CC[C@@H]2C3)c1=O [III-96, (S,E)-methyl 7-(1-(2-((1R,2R,4S)-bicyclo[2.2.1]heptan-2-ylamino)-2-oxoethyl)-2-oxo-1,2-dihydropyridin-3-ylamino)-6-(1-methyl-1H-1,2,3-triazole-5-carboxamido)-7-oxohept-2-enoate]	< 25 nM	< 1	1 to 10 ×10⁻⁶ cm/s
COC(=O)/C=C/CC[C@H](NC(=O)c1cc(Cl)sc1Cl)C(=O)Nc1cccn(CC(=O)N[C@@H]2C[C@H]3CC[C@@H]2C3)c1=O [III-97, (S,E)-methyl 7-(1-(2-((1R,2R,4S)-bicyclo[2.2.1]heptan-2-ylamino)-2-oxoethyl)-2-oxo-1,2-dihydropyridin-3-ylamino)-6-(2,5-dichlorothiophene-3-carboxamido)-7-oxohept-2-enoate]	< 25 nM	3 to 5	1 to 10 ×10⁻⁶ cm/s
COC(=O)/C=C/CC[C@H](NC(=O)c1sc(C(F)(F)F)nc1C)C(=O)Nc1cccn(CC(=O)N[C@@H]2C[C@H]3CC[C@@H]2C3)c1=O [III-98, (S,E)-methyl 7-(1-(2-((1R,2R,4S)-bicyclo[2.2.1]heptan-2-ylamino)-2-oxoethyl)-2-oxo-1,2-dihydropyridin-3-ylamino)-6-(4-methyl-2-(trifluoromethyl)thiazole-5-carboxamido)-7-oxohept-2-enoate]	< 25 nM	1 to 3	1 to 10 ×10⁻⁶ cm/s
CCOC(=O)/C=C/CC[C@H](NC(=O)c1cncn1C)C(=O)Nc1cccn(CC(=O)NC2C3CC4CC(C3)CC2C4)c1=O (stereo partly drawn) [III-99, (S,E)-ethyl 7-(1-(2-(2-adamantylamino)-2-oxoethyl)-2-oxo-1,2-dihydropyridin-3-ylamino)-6-(1-methyl-1H-imidazole-5-carboxamido)-7-oxohept-2-enoate]	25 to 250 nM	3 to 5	< 1 ×10⁻⁶ cm/s
Cn1cncc1C(=O)N[C@@H](CC/C=C/S(C)(=O)=O)C(=O)Nc1cccn(CC(=O)NC2C3CC4CC(C3)CC2C4)c1=O (stereo partly drawn) [III-100, (S,E)-N-(1-(1-(2-(2-adamantylamino)-2-oxoethyl)-2-oxo-1,2-dihydropyridin-3-ylamino)-6-(methylsulfonyl)-1-oxohex-5-en-2-yl)-1-methyl-1H-imidazole-5-carboxamide]	25 to 250 nM	1 to 3	< 1 ×10⁻⁶ cm/s
COC(=O)/C=C/CC[C@H](NC(=O)c1cn[nH]n1)C(=O)Nc1cccn(CC(=O)NC2C3CC4CC(C3)CC2C4)c1=O (stereo partly drawn) [III-101, (S,E)-methyl 7-(1-(2-(2-adamantylamino)-2-oxoethyl)-2-oxo-1,2-dihydropyridin-3-ylamino)-7-oxo-6-(2H-1,2,3-triazole-4-carboxamido)hept-2-enoate]	25 to 250 nM	1 to 3	< 1 ×10⁻⁶ cm/s
COC(=O)/C=C/CC[C@H](NC(=O)c1cn(C)nn1)C(=O)Nc1cccn(CC(=O)NC2C3CC4CC(C3)CC2C4)c1=O (stereo partly drawn) [III-103, (S,E)-methyl 7-(1-(2-(2-adamantylamino)-2-oxoethyl)-2-oxo-1,2-dihydropyridin-3-ylamino)-6-(1-methyl-1H-1,2,3-triazole-4-carboxamido)-7-oxohept-2-enoate]	25 to 250 nM	1 to 3	1 to 10 ×10⁻⁶ cm/s

Next, values leading:

IC50 [1]	logD [2]	Papp [3]	Compound
< 25 nM	1 to 3	< 1 ×10⁻⁶ cm/s	COC(=O)/C=C/CC[C@H](NC(=O)c1cccnn1)C(=O)Nc1cccn(CC(=O)NC2C3CC4CC(C3)CC2C4)c1=O (stereo partly drawn) [III-86, (S,E)-methyl 7-(1-(2-(2-adamantylamino)-2-oxoethyl)-2-oxo-1,2-dihydropyridin-3-ylamino)-7-oxo-6-(pyridazine-3-carboxamido)hept-2-enoate]
< 25 nM	1 to 3	< 1 ×10⁻⁶ cm/s	COC(=O)/C=C/CC[C@H](NC(=O)c1cncn1C)C(=O)Nc1cccn(CC(=O)NC23CC4CC(C)(CC(C)(C4)C2)C3)c1=O [III-88, (S,E)-methyl 7-(1-(2-(3,5-dimethyladamantane)-2-oxoethyl)-2-oxo-1,2-dihydropyridin-3-ylamino)-6-(1-methyl-1H-imidazole-5-carboxamido)-7-oxohept-2-enoate]
< 25 nM	3 to 5	1 to 10 ×10⁻⁶ cm/s	CCOC(=O)/C=C/CC[C@H](NC(=O)c1oc2ccccc2c1C)C(=O)Nc1cccn(CC(=O)NC2C3CC4CC(C3)CC2C4)c1=O (stereo partly drawn) [III-89, (S,E)-ethyl 7-(1-(2-(2-adamantylamino)-2-oxoethyl)-2-oxo-1,2-dihydropyridin-3-ylamino)-6-(3-methylbenzofuran-2-carboxamido)-7-oxohept-2-enoate]
< 25 nM	1 to 3	1 to 10 ×10⁻⁶ cm/s	Cc1c(C(=O)N[C@@H](CC/C=C/S(C)(=O)=O)C(=O)Nc2cccn(CC(=O)NC3C4CC5CC(C4)CC3C5)c2=O)oc2ccccc12 (stereo partly drawn) [III-90, (S,E)-N-(1-(1-(2-(2-adamantylamino)-2-oxoethyl)-2-oxo-1,2-dihydropyridin-3-ylamino)-6-(methylsulfonyl)-1-oxohex-5-en-2-yl)-3-methylbenzofuran-2-carboxamide]
< 25 nM	3 to 5	1 to 10 ×10⁻⁶ cm/s	COC(=O)/C=C/CC[C@H](NC(=O)c1cncn1C)C(=O)Nc1cccn(CC(=O)NC23CC4(C)CC(C)(CC(C)(C4)C2)C3)c1=O [III-91, (S,E)-methyl 7-(1-(2-(3,5,7-trimethyl-1-adamantylamino)-2-oxoethyl)-2-oxo-1,2-dihydropyridin-3-ylamino)-6-(1-methyl-1H-imidazole-5-carboxamido)-7-oxohept-2-enoate]
< 25 nM	3 to 5	1 to 10 ×10⁻⁶ cm/s	COC(=O)/C=C/CC[C@H](NC(=O)c1oc2ccccc2c1C)C(=O)Nc1cccn(CC(=O)NC23CC4(C)CC(C)(CC(C)(C4)C2)C3)c1=O [III-92, (S,E)-methyl 7-(1-(2-(3,5,7-trimethyl-1-adamantylamino)-2-oxoethyl)-2-oxo-1,2-dihydropyridin-3-ylamino)-6-(3-methylbenzofuran-2-carboxamido)-7-oxohept-2-enoate]
